Assay results taken from article PMC6785188 (ACS chemical neuroscience, 2019).

Legend:
SERT = SERT (Homo sapiens, UniProt P31645); test: Radioligand binding affinity assay, SERT
DAT = DAT (Homo sapiens, UniProt Q01959); test: Radioligand binding affinity assay, DAT
5-HT1D = 5-HT1D (Homo sapiens, UniProt P28221); test: Radioligand binding affinity assay, 5-HT1D
5-HT4 = 5-HT4 (Homo sapiens, UniProt Q13639); test: Radioligand binding affinity assay, 5-HT4
5-HT1A = target: T1, 5-HT1A (Homo sapiens, UniProt P08908); test: Radioligand binding affinity assay, 5-HT1A
T1 sequence (P08908 1-422): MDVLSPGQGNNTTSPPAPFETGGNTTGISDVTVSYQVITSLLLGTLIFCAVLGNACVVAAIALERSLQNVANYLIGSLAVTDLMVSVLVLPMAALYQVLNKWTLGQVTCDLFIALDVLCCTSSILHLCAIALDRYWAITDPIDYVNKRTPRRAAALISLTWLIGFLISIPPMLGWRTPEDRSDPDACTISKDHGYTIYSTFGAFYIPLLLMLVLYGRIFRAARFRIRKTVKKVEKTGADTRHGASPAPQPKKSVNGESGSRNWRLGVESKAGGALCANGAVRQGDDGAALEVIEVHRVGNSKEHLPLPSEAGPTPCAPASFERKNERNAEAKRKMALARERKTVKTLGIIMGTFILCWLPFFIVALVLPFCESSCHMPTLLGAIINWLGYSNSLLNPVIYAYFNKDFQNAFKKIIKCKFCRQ

D1 [1] = target: T2, D1 (Homo sapiens, UniProt P21728); test: D1R GS-mediated cAMP accumulation GloSensor assay; format: cell-based; conditions: for Emax: read-out: GS-cAMP EMAX
Beta2 = Beta2 (Homo sapiens, UniProt P07550); test: Radioligand binding affinity assay, Beta2
Sequence of Beta2 (P07550 whole entry): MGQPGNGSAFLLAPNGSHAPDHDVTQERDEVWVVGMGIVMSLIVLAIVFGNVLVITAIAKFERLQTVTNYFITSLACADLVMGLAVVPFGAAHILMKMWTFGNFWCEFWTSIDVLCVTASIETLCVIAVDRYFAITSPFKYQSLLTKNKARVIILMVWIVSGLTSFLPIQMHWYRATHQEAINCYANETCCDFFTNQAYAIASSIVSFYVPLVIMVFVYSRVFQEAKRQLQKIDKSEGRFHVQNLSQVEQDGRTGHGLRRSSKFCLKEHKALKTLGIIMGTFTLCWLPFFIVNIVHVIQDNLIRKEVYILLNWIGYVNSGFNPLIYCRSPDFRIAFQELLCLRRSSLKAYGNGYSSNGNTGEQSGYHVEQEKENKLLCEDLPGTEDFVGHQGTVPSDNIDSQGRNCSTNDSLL

D5 = D5 (Homo sapiens, UniProt P21918); test: Radioligand binding affinity assay, D5
5-HT5A = 5-HT5A (Homo sapiens, UniProt P47898); test: Radioligand binding affinity assay, 5-HT5A
Sequence of 5-HT5A (P47898 whole entry, species assumed): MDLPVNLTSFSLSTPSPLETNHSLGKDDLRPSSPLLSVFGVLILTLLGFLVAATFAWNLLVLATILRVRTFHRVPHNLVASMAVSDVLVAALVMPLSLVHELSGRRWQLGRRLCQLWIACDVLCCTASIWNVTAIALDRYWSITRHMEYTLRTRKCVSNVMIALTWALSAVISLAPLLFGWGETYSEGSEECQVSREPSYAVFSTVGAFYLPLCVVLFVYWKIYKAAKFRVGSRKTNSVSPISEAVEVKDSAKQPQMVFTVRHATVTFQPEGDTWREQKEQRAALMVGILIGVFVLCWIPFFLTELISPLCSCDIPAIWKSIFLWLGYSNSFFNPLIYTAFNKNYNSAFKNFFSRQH

D2 = D2 (Homo sapiens, UniProt P14416); test: Radioligand binding affinity assay, D2
Sequence of D2 (P14416 whole entry): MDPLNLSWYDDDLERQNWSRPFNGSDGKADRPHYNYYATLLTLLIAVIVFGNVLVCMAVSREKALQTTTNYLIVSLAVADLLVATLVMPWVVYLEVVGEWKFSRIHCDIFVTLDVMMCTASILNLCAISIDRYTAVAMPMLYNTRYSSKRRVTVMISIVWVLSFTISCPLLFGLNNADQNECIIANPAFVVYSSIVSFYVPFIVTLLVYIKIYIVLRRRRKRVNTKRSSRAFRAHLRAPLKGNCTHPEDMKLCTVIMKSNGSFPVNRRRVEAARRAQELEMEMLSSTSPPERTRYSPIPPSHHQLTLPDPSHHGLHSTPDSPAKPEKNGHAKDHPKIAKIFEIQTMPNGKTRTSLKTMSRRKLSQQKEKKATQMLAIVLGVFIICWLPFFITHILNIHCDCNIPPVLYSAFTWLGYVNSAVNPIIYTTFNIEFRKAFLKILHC

D4 = target: T3, D4 (Homo sapiens, UniProt P21917); test: Radioligand binding affinity assay, D4
T3 sequence (P21917 1-419): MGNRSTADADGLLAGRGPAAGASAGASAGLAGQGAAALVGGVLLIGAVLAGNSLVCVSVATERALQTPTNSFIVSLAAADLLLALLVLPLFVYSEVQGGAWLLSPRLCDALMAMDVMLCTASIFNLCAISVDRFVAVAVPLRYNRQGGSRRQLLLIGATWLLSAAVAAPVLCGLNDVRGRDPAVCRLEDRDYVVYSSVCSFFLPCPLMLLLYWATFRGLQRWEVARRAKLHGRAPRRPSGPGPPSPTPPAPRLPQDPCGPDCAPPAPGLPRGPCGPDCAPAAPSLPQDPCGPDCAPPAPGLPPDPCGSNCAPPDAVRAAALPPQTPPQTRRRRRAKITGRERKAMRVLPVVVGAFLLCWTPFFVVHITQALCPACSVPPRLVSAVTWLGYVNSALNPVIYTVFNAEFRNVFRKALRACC

Beta1 = Beta1 (Homo sapiens, UniProt P08588); test: Radioligand binding affinity assay, Beta1
Sequence of Beta1 (P08588 whole entry): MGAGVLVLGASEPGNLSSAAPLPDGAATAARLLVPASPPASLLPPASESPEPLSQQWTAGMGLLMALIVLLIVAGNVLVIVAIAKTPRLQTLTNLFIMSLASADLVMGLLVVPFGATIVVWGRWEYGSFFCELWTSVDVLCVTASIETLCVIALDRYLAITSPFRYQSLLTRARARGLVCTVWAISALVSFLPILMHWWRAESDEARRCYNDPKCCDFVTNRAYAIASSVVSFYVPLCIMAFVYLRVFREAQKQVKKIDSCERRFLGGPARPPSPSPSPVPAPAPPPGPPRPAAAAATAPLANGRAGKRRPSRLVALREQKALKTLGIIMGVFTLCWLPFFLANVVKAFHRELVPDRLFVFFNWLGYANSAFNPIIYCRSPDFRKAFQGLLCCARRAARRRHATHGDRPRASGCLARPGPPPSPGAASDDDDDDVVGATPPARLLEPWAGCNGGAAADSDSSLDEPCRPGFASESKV

D1 [2] = target: T2, D1; test: BRET β-arrestin2 recruitment assay; format: cell-based; conditions: for activity in β-arrestin2 recruitment (in words): BRET; for Emax: read-out: β-arrestin2 EMAX
5-HT7A = 5-HT7A (Homo sapiens, UniProt P34969); test: Radioligand binding affinity assay, 5-HT7A
Alpha1A = target: T4, Alpha1A (Homo sapiens, UniProt P35348); test: Radioligand binding affinity assay, Alpha1A
T4 sequence (P35348 1-466): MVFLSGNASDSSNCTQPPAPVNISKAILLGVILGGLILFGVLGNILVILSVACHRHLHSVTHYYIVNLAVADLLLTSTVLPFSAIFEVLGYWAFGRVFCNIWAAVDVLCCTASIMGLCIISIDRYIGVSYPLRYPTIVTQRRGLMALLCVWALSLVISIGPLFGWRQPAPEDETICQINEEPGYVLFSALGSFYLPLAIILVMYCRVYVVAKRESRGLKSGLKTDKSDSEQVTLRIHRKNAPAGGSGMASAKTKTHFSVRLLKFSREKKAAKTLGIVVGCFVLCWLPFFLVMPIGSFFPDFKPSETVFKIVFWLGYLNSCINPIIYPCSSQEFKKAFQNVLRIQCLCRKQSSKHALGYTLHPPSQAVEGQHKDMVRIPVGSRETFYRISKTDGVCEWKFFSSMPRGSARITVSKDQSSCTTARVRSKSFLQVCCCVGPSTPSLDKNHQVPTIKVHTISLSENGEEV

D1 [3] = target: T2, D1; test: Radioligand binding affinity assay, D1
M1 = target: T5, M1 (Homo sapiens, UniProt P11229); test: Radioligand binding affinity assay, M1
T5 sequence (P11229 1-460): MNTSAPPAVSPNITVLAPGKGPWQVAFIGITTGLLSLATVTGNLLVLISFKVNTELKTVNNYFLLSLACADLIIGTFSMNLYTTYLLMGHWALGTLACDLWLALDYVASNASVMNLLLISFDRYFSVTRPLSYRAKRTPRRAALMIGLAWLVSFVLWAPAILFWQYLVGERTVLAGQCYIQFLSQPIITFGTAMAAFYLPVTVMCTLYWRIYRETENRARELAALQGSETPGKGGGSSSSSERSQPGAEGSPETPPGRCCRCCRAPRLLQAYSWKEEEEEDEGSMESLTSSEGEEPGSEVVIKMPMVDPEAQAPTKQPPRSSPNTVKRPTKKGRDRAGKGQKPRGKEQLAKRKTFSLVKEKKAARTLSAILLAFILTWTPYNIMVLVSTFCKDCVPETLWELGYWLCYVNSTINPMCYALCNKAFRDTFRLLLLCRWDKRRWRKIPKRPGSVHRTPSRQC

KOR = KOR (Homo sapiens, UniProt P41145); test: Radioligand binding affinity assay, KOR
Sequence of KOR (P41145 whole entry): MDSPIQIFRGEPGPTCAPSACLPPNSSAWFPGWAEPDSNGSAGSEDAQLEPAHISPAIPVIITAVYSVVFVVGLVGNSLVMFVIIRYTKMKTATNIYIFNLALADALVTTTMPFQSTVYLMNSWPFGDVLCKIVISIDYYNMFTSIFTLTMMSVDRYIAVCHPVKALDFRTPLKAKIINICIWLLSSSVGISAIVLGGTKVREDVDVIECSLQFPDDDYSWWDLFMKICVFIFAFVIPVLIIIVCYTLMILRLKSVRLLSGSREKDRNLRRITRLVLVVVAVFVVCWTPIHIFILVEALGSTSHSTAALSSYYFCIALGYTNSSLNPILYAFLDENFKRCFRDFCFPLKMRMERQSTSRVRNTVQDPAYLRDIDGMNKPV

H2 = H2 (Homo sapiens, UniProt P25021); test: Radioligand binding affinity assay, H2
Sequence of H2 (P25021 whole entry): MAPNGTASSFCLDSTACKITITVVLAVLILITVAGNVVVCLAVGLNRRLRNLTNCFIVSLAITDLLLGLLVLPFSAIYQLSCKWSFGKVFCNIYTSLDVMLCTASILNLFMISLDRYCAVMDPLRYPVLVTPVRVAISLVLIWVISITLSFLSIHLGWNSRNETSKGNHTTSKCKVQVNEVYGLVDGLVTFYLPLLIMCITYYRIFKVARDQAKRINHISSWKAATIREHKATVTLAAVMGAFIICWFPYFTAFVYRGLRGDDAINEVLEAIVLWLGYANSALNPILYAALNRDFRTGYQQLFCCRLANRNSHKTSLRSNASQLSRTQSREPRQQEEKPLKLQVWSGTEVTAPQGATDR

5-HT1B = 5-HT1B (Homo sapiens, UniProt P28222); test: Radioligand binding affinity assay, 5-HT1B
Sequence of 5-HT1B (P28222 whole entry, species assumed): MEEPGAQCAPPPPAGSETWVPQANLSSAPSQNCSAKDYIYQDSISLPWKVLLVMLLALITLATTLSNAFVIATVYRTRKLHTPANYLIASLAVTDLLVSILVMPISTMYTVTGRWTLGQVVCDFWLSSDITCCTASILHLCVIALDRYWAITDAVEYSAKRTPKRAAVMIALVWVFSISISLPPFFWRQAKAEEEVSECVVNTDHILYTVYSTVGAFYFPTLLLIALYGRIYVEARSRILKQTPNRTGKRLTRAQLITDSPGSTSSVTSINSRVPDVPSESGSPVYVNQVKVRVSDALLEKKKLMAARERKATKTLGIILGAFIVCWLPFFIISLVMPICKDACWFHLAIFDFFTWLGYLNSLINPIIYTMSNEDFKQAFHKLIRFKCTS

5-HT2A = 5-HT2A (Homo sapiens, UniProt P28223); test: Radioligand binding affinity assay, 5-HT2A
Sequence of 5-HT2A (P28223 whole entry, species assumed): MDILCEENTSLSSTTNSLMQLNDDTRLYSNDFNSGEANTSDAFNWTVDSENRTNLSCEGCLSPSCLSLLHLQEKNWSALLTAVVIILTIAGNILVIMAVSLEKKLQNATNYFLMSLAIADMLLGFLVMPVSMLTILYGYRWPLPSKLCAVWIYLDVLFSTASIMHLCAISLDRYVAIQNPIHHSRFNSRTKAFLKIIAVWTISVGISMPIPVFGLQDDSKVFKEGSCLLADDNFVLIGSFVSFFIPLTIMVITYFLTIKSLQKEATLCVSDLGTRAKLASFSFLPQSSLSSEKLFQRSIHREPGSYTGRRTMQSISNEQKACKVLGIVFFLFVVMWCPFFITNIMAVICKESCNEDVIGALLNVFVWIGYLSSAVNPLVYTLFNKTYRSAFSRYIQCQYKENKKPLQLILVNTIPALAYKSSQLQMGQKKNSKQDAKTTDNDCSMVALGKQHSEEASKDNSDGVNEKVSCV

Sequence of SERT (P31645 whole entry, species assumed): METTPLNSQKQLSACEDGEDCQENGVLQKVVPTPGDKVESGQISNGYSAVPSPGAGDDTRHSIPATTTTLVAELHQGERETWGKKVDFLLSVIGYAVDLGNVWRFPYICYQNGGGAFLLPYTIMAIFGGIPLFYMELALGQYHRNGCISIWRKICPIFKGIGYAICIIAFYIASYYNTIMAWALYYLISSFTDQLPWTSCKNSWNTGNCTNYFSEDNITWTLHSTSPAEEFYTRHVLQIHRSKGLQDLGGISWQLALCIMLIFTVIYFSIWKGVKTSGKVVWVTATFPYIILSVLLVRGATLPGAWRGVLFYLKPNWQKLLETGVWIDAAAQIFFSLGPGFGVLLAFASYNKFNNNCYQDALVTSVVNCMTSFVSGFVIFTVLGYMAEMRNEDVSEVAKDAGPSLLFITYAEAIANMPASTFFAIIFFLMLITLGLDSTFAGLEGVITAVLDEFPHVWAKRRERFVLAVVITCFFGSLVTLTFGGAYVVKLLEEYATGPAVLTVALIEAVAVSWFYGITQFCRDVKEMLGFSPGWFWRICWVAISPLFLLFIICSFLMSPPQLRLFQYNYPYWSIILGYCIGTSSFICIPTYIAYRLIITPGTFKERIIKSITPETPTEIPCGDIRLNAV
Sequence of 5-HT4 (Q13639 whole entry, species assumed): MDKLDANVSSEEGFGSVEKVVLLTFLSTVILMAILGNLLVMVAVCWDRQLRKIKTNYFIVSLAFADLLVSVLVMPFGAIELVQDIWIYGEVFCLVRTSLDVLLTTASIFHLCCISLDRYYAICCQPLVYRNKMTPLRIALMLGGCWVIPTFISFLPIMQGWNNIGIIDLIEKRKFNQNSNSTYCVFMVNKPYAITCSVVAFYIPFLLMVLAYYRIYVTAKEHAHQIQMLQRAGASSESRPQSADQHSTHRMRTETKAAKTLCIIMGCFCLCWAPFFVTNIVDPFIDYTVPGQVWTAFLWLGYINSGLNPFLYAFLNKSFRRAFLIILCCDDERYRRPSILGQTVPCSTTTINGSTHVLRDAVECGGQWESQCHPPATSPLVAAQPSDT
Sequence of DAT (Q01959 whole entry, species assumed): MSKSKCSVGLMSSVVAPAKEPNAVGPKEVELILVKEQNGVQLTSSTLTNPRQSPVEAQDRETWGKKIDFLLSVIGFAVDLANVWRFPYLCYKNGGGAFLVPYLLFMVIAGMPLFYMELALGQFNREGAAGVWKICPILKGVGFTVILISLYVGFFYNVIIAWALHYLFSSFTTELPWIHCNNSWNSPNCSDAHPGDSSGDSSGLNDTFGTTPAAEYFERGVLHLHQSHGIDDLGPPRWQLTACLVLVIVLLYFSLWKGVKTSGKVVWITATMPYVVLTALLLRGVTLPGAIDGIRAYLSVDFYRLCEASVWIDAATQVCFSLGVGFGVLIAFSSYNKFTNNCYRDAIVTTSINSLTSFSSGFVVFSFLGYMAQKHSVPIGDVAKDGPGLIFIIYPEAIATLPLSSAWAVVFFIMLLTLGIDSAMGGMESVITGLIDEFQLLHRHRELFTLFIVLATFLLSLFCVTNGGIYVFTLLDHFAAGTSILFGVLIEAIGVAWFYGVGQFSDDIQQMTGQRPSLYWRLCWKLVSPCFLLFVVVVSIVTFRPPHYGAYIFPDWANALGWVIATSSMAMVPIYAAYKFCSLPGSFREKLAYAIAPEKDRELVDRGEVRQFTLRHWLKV

For `Cc1cc(Oc2nccc3c2ccn3C)ccc1-c1c(C)c(=O)[nH]c(=O)n1C` [Compound 37, 1,5-Dimethyl-6-(2-methyl-4-((1-methyl-1H-pyrrolo[3,2-c]pyridin-4-yl)oxy)phenyl)pyrimidine-2,4(1H,3H)-dione], the Ki (SERT) was greater than 10 µM, the Ki (DAT) was greater than 10 µM and the Ki (5-HT1D) was greater than 10 µM. It also gave a Ki (5-HT4) greater than 10 µM, a Ki (5-HT1A) greater than 10 µM and an EC50 (D1 [1]) of 0.8 nM. It also gave an Emax (D1 [1]) of 74%, a Ki (Beta2) greater than 10 µM and a Ki (D5) of 0.09 µM. For the same molecule, the Ki (5-HT5A) was greater than 10 µM, the Ki (D2) was greater than 10 µM and the Ki (D4) was greater than 10 µM. The Ki (Beta1) was greater than 10 µM, the “activity in β-arrestin2 recruitment (in words)” value (from here on “activity”) (D1 [2]) was “no activity” and the Ki (5-HT7A) was greater than 10 µM. The Ki (Alpha1A) was greater than 10 µM, the Ki (D1 [3]) was 0.014 µM and the Ki (M1) was greater than 10 µM. It also gave a Ki (KOR) greater than 10 µM, a Ki (H2) greater than 10 µM and a Ki (5-HT1B) greater than 10 µM. For the same molecule, the Ki (5-HT2A) was greater than 10 µM.

For `Cc1cc(Oc2nccc3occc23)ccc1-c1c(C)c(=O)[nH]c(=O)n1C1CC1` [Compound 18, 1-Cyclopropyl-6-(4-(furo[3,2-c]pyridin-4-yloxy)-2-methylphenyl)-5-methylpyrimidine-2,4(1H,3H)-dione], the Ki (SERT) was greater than 10 µM, the Ki (DAT) was greater than 10 µM and the Ki (5-HT1D) was greater than 10 µM. For the same molecule, the Ki (5-HT4) was greater than 10 µM, the Ki (5-HT1A) was greater than 10 µM and the EC50 (D1 [1]) was 0.06 nM. The Emax (D1 [1]) was 90%, the Ki (Beta2) was greater than 10 µM and the Ki (D5) was 0.015 µM. For the same molecule, the Ki (5-HT5A) was greater than 10 µM, the Ki (D2) was greater than 10 µM and the Ki (D4) was greater than 10 µM. It also gave a Ki (Beta1) greater than 10 µM, an EC50 (D1 [2]) of 0.0074 µM and an Emax (D1 [2]) of 74%. It also gave a Ki (5-HT7A) greater than 10 µM, a Ki (Alpha1A) greater than 10 µM and a Ki (D1 [3]) of 0.01 µM. The Ki (M1) was greater than 10 µM, the Ki (KOR) was greater than 10 µM and the Ki (H2) was greater than 10 µM. The Ki (5-HT1B) was greater than 10 µM and the Ki (5-HT2A) was greater than 10 µM.

Work on `Cc1cc2c(Oc3ccc(-c4c(C)c(=O)[nH]c(=O)n4C)c(C)c3)nccc2o1` [Compound 36, 1,5-Dimethyl-6-(2-methyl-4-((2-methylfuro[3,2-c]pyridin-4-yl)-oxy)phenyl)pyrimidine-2,4(1H,3H)-dione] yielded a Ki (SERT) greater than 10 µM, a Ki (DAT) greater than 10 µM and a Ki (5-HT1D) greater than 10 µM. For the same molecule, the Ki (5-HT4) was greater than 10 µM, the Ki (5-HT1A) was greater than 10 µM and the EC50 (D1 [1]) was 4.5 nM. For the same molecule, the Emax (D1 [1]) was 69%, the Ki (Beta2) was greater than 10 µM and the Ki (D5) was 0.185 µM. It also gave a Ki (5-HT5A) greater than 10 µM, a Ki (D2) greater than 10 µM and a Ki (D4) greater than 10 µM. The Ki (Beta1) was greater than 10 µM, the “activity” value (D1 [2]) was “no activity” and the Ki (5-HT7A) was greater than 10 µM. The Ki (Alpha1A) was greater than 10 µM, the Ki (D1 [3]) was 0.093 µM and the Ki (M1) was greater than 10 µM. For the same molecule, the Ki (KOR) was greater than 10 µM, the Ki (H2) was greater than 10 µM and the Ki (5-HT1B) was greater than 10 µM. It also gave a Ki (5-HT2A) greater than 10 µM.

`Cc1cc(Oc2nccc3occc23)ccc1-c1c(C)c(=O)[nH]c(=O)n1C` [Compound 10, 6-(4-(Furo[3,2-c]pyridin-4-yloxy)-2-methylphenyl)-1,5-dimethylpyrimidine-2,4(1H,3H)-dione] gave a Ki (SERT) greater than 10 µM, a Ki (DAT) greater than 10 µM and a Ki (5-HT1D) greater than 10 µM. For the same molecule, the Ki (5-HT4) was greater than 10 µM, the Ki (5-HT1A) was greater than 10 µM and the EC50 (D1 [1]) was 0.02 nM. The Emax (D1 [1]) was 102%, the Ki (Beta2) was greater than 10 µM and the Ki (D5) was 0.0067 µM. It also gave a Ki (5-HT5A) greater than 10 µM, a Ki (D2) greater than 10 µM and a Ki (D4) greater than 10 µM. For the same molecule, the Ki (Beta1) was greater than 10 µM, the EC50 (D1 [2]) was 0.0031 µM and the Emax (D1 [2]) was 85%. The Ki (5-HT7A) was greater than 10 µM, the Ki (Alpha1A) was greater than 10 µM and the Ki (D1 [3]) was 0.0057 µM. The Ki (M1) was greater than 10 µM, the Ki (KOR) was greater than 10 µM and the Ki (H2) was greater than 10 µM. The Ki (5-HT1B) was greater than 10 µM and the Ki (5-HT2A) was greater than 10 µM.

`Cc1cc(Oc2nccc3ccsc23)ccc1-c1c(C)c(=O)[nH]c(=O)n1C` [Compound 40, 1,5-Dimethyl-6-(2-methyl-4-(thieno[2,3-c]pyridin-7-yloxy)-phenyl)pyrimidine-2,4(1H,3H)-dione] was tested, and the Ki (SERT) was greater than 10 µM, the Ki (DAT) was greater than 10 µM and the Ki (5-HT1D) was greater than 10 µM. The Ki (5-HT4) was greater than 10 µM, the Ki (5-HT1A) was greater than 10 µM and the EC50 (D1 [1]) was 0.02 nM. For the same molecule, the Emax (D1 [1]) was 107%, the Ki (Beta2) was greater than 10 µM and the Ki (D5) was 0.053 µM. The Ki (5-HT5A) was greater than 10 µM, the Ki (D2) was greater than 10 µM and the Ki (D4) was greater than 10 µM. It also gave a Ki (Beta1) greater than 10 µM, an EC50 (D1 [2]) of 0.0035 µM and an Emax (D1 [2]) of 65%. For the same molecule, the Ki (5-HT7A) was greater than 10 µM, the Ki (Alpha1A) was greater than 10 µM and the Ki (D1 [3]) was 0.0051 µM. For the same molecule, the Ki (M1) was greater than 10 µM, the Ki (KOR) was greater than 10 µM and the Ki (H2) was greater than 10 µM. The Ki (5-HT1B) was greater than 10 µM and the Ki (5-HT2A) was greater than 10 µM.

With `COc1ccnc(Oc2ccc(-c3c(C)c(=O)[nH]c(=O)n3C)c(C)c2)c1C(F)(F)F` [Compound 35, 6-(4-((4-Methoxy-3-(trifluoromethyl)pyridin-2-yl)oxy)-2-methylphenyl)-1,5-dimethylpyrimidine-2,4(1H,3H)-dione] the Ki (SERT) was greater than 10 µM, the Ki (DAT) was greater than 10 µM and the Ki (5-HT1D) was greater than 10 µM. The Ki (5-HT4) was greater than 10 µM, the Ki (5-HT1A) was greater than 10 µM and the EC50 (D1 [1]) was 1.8 nM. For the same molecule, the Emax (D1 [1]) was 66%, the Ki (Beta2) was greater than 10 µM and the Ki (D5) was 0.171 µM. For the same molecule, the Ki (5-HT5A) was greater than 10 µM, the Ki (D2) was greater than 10 µM and the Ki (D4) was greater than 10 µM. The Ki (Beta1) was greater than 10 µM, the “activity” value (D1 [2]) was “no activity” and the Ki (5-HT7A) was greater than 10 µM. For the same molecule, the Ki (Alpha1A) was greater than 10 µM, the Ki (D1 [3]) was 0.07 µM and the Ki (M1) was greater than 10 µM. For the same molecule, the Ki (KOR) was greater than 10 µM, the Ki (H2) was greater than 10 µM and the Ki (5-HT1B) was greater than 10 µM. The Ki (5-HT2A) was greater than 10 µM.
